Test results taken from patent US20200260724A1, “METHODS TO FORMULATE NEUTRAL ORGANIC COMPOUNDS WITH POLYMER NANOPARTICLES” (Vive Crop Protection Inc., priority 2010, published 2020).

Tests used:
[1] = Pyrene fluorescent probe of nanoparticle microenvironment (I1/I3 ratio); assay type: physicochemical; conditions: pyrene emission, excitation 340 nm
Text: The intensity ratio of the first and third vibronic bands (I1/I3) in the emission spectra of the pyrene monomer is very sensitive to the monomer's microenvironment, and can be used as a metric to gauge the hydrophobic nature of different polymer nanoparticles produced using the methods described in this patent.
The pyrene microenvironments from different polymer nanoparticles were probed for the following nanoparticles: Na^+-collapsed polyacrylic acid (Na-PAA), ZnO/polyacrylic nanoparticles (ZnO-PAA), Zn^2+-collapsed nanoparticles (Zn-PAA), Na^+-collapsed PMAA nanoparticles (Na-PMAA), Na^+-collapsed P(MAA-co-EA) nanoparticles (Na—P(MAA-EA), poly(vinyl pyrollidone)-collapsed polyacrylic acid nanoparticles (PVP/PAA). Aqueous pyrene-nanoparticle solutions were prepared as follows. 1.0 mg pyrene was dissolved in 10 mL discholormethane and was used as the stock pyrene solution (0.1 mg/mL). To prepare the aqueous pyrene-nanoparticle solutions, 10 micro liters of the stock pyrene solution was added to a 20 mL scintillation vial and was allowed to air dry in a fume hood for one hour. 80 mg of solid nanoparticles or polymer, 10 g of deionized water and a magnetic stir bar were then added to the vial. […] Emission spectra were measured on a Perkin Elmer LS 55 Luminescence Spectrometer using an excitation wavelength of 340 nm, having slit widths for both excitation and emission at 2.5 nm. […]

[2] = Viscosity of solutions and dispersions in cP; assay type: physicochemical; conditions: temperature printed per sample, 23.1-26.0° C.
Procedure: Solid 2,4-dichlorophenoxyacetic acid (2,4-D) (0.158 g, 0.72 mmol) and fresh deionized water (50 mL) were added to a 100 mL glass beaker, along with a stir bar. The medium was connected to a pH meter and the reading was at 2.76. To the stirring dispersion, aqueous NaOH (10N) was added dropwise. As the pH increased, more solid 2,4-D dissolved the dispersion became more transparent. Eventually, all of the solid 2,4-D dissolved completely, and the solution appeared transparent. The pH and viscosity of the solution was measured at 10.76 and 0.93 cP at 25.4° C. For the reference, the viscosity of pure water was measured using the same instrument and shown a value of 0.92 cP at 26.4° C.

SMILES	I1/I3 ratio ([1]; pH 6-8)	I1/I3 ratio ([1]; pH 8-10)	Viscosity of solution or nanoparticle dispersion [2] [cP]
c1cc2ccc3cccc4ccc(c1)c2c34 [Pyrene - control, pyrene]	1.68	1.70	
O=C(O)COc1ccc(Cl)cc1Cl [2,4-D, 2,4-dichlorophenoxyacetic acid]			0.93
